What is called pEC50 is the EC50 on a negative log10 scale, so that one unit is a factor of ten.

pEC50: −log10 of the molar value. Bounds are passed on as bounds.

Results on five compounds are retold here after US12162861B2, “Dopamine D3 receptor selective antagonists/partial agonists; method of making; and use thereof” (THE UNITED STATES OF AMERICA, AS REPRESENTED BY THE …, priority 2016, dated 2024).

A short description of data set [1]: Sucrose self-administration. The class given is in vivo. Conditions: pretreatment (±)-29 15 and 25 mg/kg, (±)-19 1 and 5 mg/kg.
A further data set addresses T1, human D3R (Homo sapiens, UniProt P35462).
T1 construct: expressed in transfected cells; host or cells: HEK293
Put plainly: Radioligand competition binding, [3H]N-methylspiperone, D3R. Conditions: Table 1A; ratio of Ki values. On the procedure:
Binding at dopamine D2-like receptors was determined using previously described methods. […] Upon reaching 80-90% confluence, cells were harvested using pre-mixed Earle's Balanced Salt Solution (EBSS) with 5 μM EDTA (Life Technologies) and centrifuged at 3000 rpm for 10 min at 21° C. The supernatant was removed and the pellet was resuspended in 10 mL hypotonic lysis buffer (5 mM MgCl2·6H2O, 5 mM Tris, pH 7.4 at 4° C.) and centrifuged at 20,000 rpm for 30 min at 4° C. The pellet was then resuspended in fresh EBSS buffer made from 8.7 g/L Earle's Balanced Salts without phenol red (US Biological, Salem, MA), 2.2 g/L sodium bicarbonate, pH to 7.4. A Bradford protein assay (Bio-Rad, Hercules, CA) was used to determine the protein concentration and membranes were diluted to 500 μg/mL and stored in a −80° C. freezer for later use.
Radioligand competition binding experiments were conducted using thawed membranes. Test compounds were freshly dissolved in 30% DMSO and 70% H2O to a stock concentration of 100 μM. To assist the solubilization of free-base compounds, 10 μl of glacial acetic acid was added along with the DMSO. Each test compound was then diluted into 13 half-log serial dilutions using 30% DMSO vehicle; final test concentrations ranged from 10 μM to 10 pM. Previously frozen membranes were diluted in fresh EBSS to a 100 μg/mL (for hD2R or hD3R) or 200 μg/mL (hD4R) stock for binding. Radioligand competition experiments were conducted in glass tubes containing 300 μl fresh EBSS buffer with 0.2 mM sodium metabisulfite, 50 μl of diluted test compound, 100 μl of membranes (10 μg total protein for hD2R or hD3R, 20 μg total protein for hD4R), and 50 μl of [^3H]N-methylspiperone (0.4 nM final concentration; Perkin Elmer). Nonspecific binding was determined using 10 μM butaclamol (Sigma-Aldrich, St. Louis, MO) and total binding was determined with 30% DMSO vehicle. All compound dilutions were tested in triplicate and the reaction incubated for one hour at room temperature. The reaction was terminated by filtration through Whatman GF/B filters, presoaked for one hour in 0.5% polyethylenimine, using a Brandel R48 filtering manifold (Brandel Instruments, Gaithersburg, MD). The filters were washed 3 times with 3 mL of ice cold EBSS buffer and transferred to scintillation vials. […] IC50 values for each compound were determined from dose-response curves and Ki values were calculated using the Cheng-Prusoff equation; these analyses were performed using GraphPad Prism version 5.00 for Windows (GraphPad Software, San Diego, CA). Reported Ki values were determined from least three independent experiments.
(Loss of bound radioactivity is the signal in a displacement assay; it reports binding, not function.)

The next data set has as its target T2, human D2R (Homo sapiens, UniProt P14416).
T2 construct: expressed in transfected cells; host or cells: HEK293
Put plainly: Radioligand competition binding, [3H]N-methylspiperone, D2R. As to conditions: Table 1A; ratio of Ki values. On the procedure: Binding at dopamine D2-like receptors was determined using previously described methods. (Chen et al. “Tranylcypromine substituted cis-hydroxycyclobutylnaphthamides as potent and selective dopamine D(3) receptor antagonists.” J. Med. Chem. 2014, 57, 4962-4968) Membranes were prepared from HEK293 cells expressing human D2R, D3R or D4R, grown in a 50:50 mix of DMEM and Ham's F12 culture media, supplemented with 20 mM HEPES, 2 mM L-glutamine, 0.1 mM non-essential amino acids, 1× antibiotic/antimycotic, 10% heat-inactivated fetal bovine serum, and 200 μg/mL hygromycin (Life Technologies, Grand Island, NY) and kept in an incubator at 37° C. and 5% CO2. Upon reaching 80-90% confluence, cells were harvested using pre-mixed Earle's Balanced Salt Solution (EBSS) with 5 μM EDTA (Life Technologies) and centrifuged at 3000 rpm for 10 min at 21° C. The supernatant was removed and the pellet was resuspended in 10 mL hypotonic lysis buffer (5 mM MgCl2·6H2O, 5 mM Tris, pH 7.4 at 4° C.) and centrifuged at 20,000 rpm for 30 min at 4° C. The pellet was then resuspended in fresh EBSS buffer made from 8.7 g/L Earle's Balanced Salts without phenol red (US Biological, Salem, MA), 2.2 g/L sodium bicarbonate, pH to 7.4. A Bradford protein assay (Bio-Rad, Hercules, CA) was used to determine the protein concentration and membranes were diluted to 500 μg/mL and stored in a −80° C. freezer for later use.
Radioligand competition binding experiments were conducted using thawed membranes. Test compounds were freshly dissolved in 30% DMSO and 70% H2O to a stock concentration of 100 μM. To assist the solubilization of free-base compounds, 10 μl of glacial acetic acid was added along with the DMSO. Each test compound was then diluted into 13 half-log serial dilutions using 30% DMSO vehicle; final test concentrations ranged from 10 μM to 10 pM. Previously frozen membranes were diluted in fresh EBSS to a 100 μg/mL (for hD2R or hD3R) or 200 μg/mL (hD4R) stock for binding. Radioligand competition experiments were conducted in glass tubes containing 300 μl fresh EBSS buffer with 0.2 mM sodium metabisulfite, 50 μl of diluted test compound, 100 μl of membranes (10 μg total protein for hD2R or hD3R, 20 μg total protein for hD4R), and 50 μl of [^3H]N-methylspiperone (0.4 nM final concentration; Perkin Elmer). Nonspecific binding was determined using 10 μM butaclamol (Sigma-Aldrich, St. Louis, MO) and total binding was determined with 30% DMSO vehicle. All compound dilutions were tested in triplicate and the reaction incubated for one hour at room temperature. The reaction was terminated by filtration through Whatman GF/B filters, presoaked for one hour in 0.5% polyethylenimine, using a Brandel R48 filtering manifold (Brandel Instruments, Gaithersburg, MD). The filters were washed 3 times with 3 mL of ice cold EBSS buffer and transferred to scintillation vials. 3 mL CytoScint liquid scintillation cocktail (MP Biomedicals, Solon, OH) was added and vials were counted using a Perkin Elmer Tri-Carb 2910 TR liquid scintillation counter (Waltham, MA). IC50 values for each compound were determined from dose-response curves and Ki values were calculated using the Cheng-Prusoff equation; these analyses were performed using GraphPad Prism version 5.00 for Windows (GraphPad Software, San Diego, CA). Reported Ki values were determined from least three independent experiments.

Another data set has as its target T3, human dopamine D3R (Homo sapiens, UniProt P35462).
T3 construct: expressed in transfected cells; host or cells: CHO
The experiment in a line: D3R mitogenesis assay in CHO cells. The class given is cell-based. As to conditions: stimulation of mitogenesis, CHO cells with human D3R; read-out: Agonist EC50 ± SEM.

Data set [2] in a line: Pharmacokinetics in rats after oral administration. The class given is in vivo, rat. Conditions: 10 mg/kg oral. How it is done: Male Long-Evans rats with body weights ˜250 grams (Charles River Laboratories, Raleigh, NC, USA) were used in this study. All rats were housed individually in a climate-controlled room under a 12 h light/dark cycle. Food and water were available ad libitum throughout the experiments. All experimental procedures were conducted in accordance with the Guide for the Care and Use of Laboratory Animals and were approved by the Animal Care and Use Committee of the National Institute on Drug Abuse of the U.S. National Institutes of Health. Experimental (oral gavage) procedures: The animals were gently restrained (grasp the animal by the loose skin of the neck and back) to immobilize the head but not such that the animals vocalize or show other signs of distress. Maintained the animal in an upright (vertical) position and passed the gavage needle (19-gauge) along the side of the mouth. Following the roof of the mouth, advanced the needle into the esophagus and toward the stomach. After the needle was passed to the correct length, the compound was injected. […] A volume of 3 μL was injected onto the ultra-performance liquid chromatography (UPLC) instrument for quantitative analysis using a temperature-controlled autosampler operating at 10° C. […] Quantification was performed in multiple-reaction monitoring (MRM) mode. […]

A short description of data set [3]: Phase I metabolic stability in monkey liver microsomes. As to conditions: monkey liver microsomes, Phase I. It is filed as in vitro ADME, rhesus monkey. How it is done:
Methods: Phase I metabolic stability assay was conducted in rat and rhesus monkey liver microsomes. For phase I metabolism, the reaction was carried out with 100 mM potassium phosphate buffer, pH 7.4, in the presence of NADPH regenerating system (1.3 mM NADPH, 3.3 mM glucose 6-phosphate, 3.3 mM MgCl2, 0.4 U/mL glucose-6-phosphate dehydrogenase, 50 μM sodium citrate). Reactions in triplicate were initiated by addition of the liver microsomes to the incubation mixture (compound final concentration was 10 μM; 0.5 mg/mL microsomes). Negative controls in the absence of cofactors were carried out to determine the specific cofactor-free degradation. Compound disappearance was monitored via LC/MS/MS. Chromatographic analysis was performed using an Accela™ ultra high-performance system consisting of an analytical pump, and an autosampler coupled with TSQ Vantage mass spectrometer (Thermo Fisher Scientific Inc., Waltham MA). […] The mobile phase used was composed of 0.1% Formic Acid in Acetonitrile and 0.1% Formic Acid in H2O with gradient elution, starting with 10% (organic) linearly increasing to 99% up to 2 min, maintaining at 99% (2-2.5 min) and re-equilibrating to 10% by 2.7 min. The total run time for each analyte was 5.0 min.
For orientation: Liver microsomes are vesicles of endoplasmic reticulum, rich in cytochrome P450 enzymes.

T1 sequence (P35462 whole entry): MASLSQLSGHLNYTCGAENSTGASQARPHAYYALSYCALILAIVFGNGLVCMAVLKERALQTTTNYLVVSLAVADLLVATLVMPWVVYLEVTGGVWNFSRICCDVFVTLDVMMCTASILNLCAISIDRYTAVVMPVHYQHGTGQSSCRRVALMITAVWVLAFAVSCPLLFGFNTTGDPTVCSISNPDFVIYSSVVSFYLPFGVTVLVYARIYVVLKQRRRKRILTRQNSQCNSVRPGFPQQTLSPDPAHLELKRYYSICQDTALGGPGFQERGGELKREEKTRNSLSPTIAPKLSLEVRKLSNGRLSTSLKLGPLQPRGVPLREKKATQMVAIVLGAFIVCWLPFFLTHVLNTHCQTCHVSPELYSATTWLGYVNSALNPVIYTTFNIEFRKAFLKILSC
T3 sequence (P35462 whole entry): as above
T2 sequence (P14416 whole entry): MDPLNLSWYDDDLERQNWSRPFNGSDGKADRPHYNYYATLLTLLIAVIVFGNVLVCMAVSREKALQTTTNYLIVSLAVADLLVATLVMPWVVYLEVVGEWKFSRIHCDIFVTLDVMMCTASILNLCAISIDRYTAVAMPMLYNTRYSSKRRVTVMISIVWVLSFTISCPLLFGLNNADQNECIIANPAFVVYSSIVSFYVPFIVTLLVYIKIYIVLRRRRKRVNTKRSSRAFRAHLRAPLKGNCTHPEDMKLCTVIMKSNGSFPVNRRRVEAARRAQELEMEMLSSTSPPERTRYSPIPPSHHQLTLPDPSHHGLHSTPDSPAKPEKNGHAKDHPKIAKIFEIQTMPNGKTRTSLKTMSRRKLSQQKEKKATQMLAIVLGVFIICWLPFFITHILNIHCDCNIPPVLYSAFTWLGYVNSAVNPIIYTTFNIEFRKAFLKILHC

On to `CCc1cccc(N2CCN(CC(O)CCNC(=O)c3cc4ccccc4[nH]3)CC2)c1Cl` (racemic) [Compound 19, N-(4-(4-(2-chloro-3-ethylphenyl)piperazin-1-yl)-3-hydroxybutyl)-1H-indole-2-carboxamide], for which the sucrose self-administration result in data set [1] is “no significant effects on sucrose self-administration”.
With `CCc1cc(Cl)c(OC)c(N2CCN(CCCCNC(=O)c3cc4ccccc4[nH]3)CC2)c1` [Compound 28, N-(4-(4-(3-Chloro-5-ethyl-2-methoxyphenyl)piperazin-1-yl)butyl)-1H-indole-2-carboxamide], the D4/D3 on human D3R is 3065. On human D2R, the D4/D2 is recorded as 38. The pEC50 on human dopamine D3R was < 5.08.
As for `CCc1cc(Cl)c(OC)c(N2CCN(C[C@H](O)CCNC(=O)c3cc4ccccc4[nH]3)CC2)c1` [(R)-29, (R)—N-(4-(4-(3-chloro-5-ethyl-2-methoxyphenyl)piperazin-1-yl)-3-hydroxybutyl)-1H-indole-2-carboxamide], the “exposures in brain and plasma, R- versus S-enantiomer” value in data set [2] (FIG. 12A) is “twice higher exposures in both brain and plasma”. Moreover, in data set [3] (30 min), the “% at 30 min.” value worked out at 9%. The “% at 60 min.” value in data set [3] (60 min) is reported as 4%.
`CCc1cccc(N2CCN(C[C@@H](O)CCNC(=O)c3cc4ccccc4[nH]3)CC2)c1Cl` [(S)-19, (S)—N-(4-(4-(2-chloro-3-ethylphenyl)piperazin-1-yl)-3-hydroxybutyl)-1H-indole-2-carboxamide]: the Kp in data set [2] (male, Long-Evans, rat, brain and plasma, read-out: brain/plasma ratio) was 6.
Consider `CCc1cc(Cl)c(OC)c(N2CCN(CCCCNC(=O)c3cc4ccccc4o3)CC2)c1` [Compound 30, N-(4-(4-(3-Chloro-5-ethyl-2-methoxyphenyl)piperazin-1-yl)butyl)benzofuran-2-carboxamide], for which the D4/D3 on human D3R is given as 224. The D4/D2 at human D2R is listed as 5.2. Moreover, the pEC50 on human dopamine D3R is < 5.18.
